Measured values: ChEMBL document CHEMBL1177838, “Synthesis and antiproliferative activity of indolizine derivatives incorporating a cyclopropylcarbonyl group against Hep-G2 cancer cell line” (Eur J Med Chem, 2010)
In brackets after ≈: the same amount, converted by molar mass.

Key:
HepG2 = test: cells; conditions: Homo sapiens, HepG2, 48 h
Description: Cytotoxicity against human HepG2 cells after 48 hrs by MTT assay

[1] = target: Epidermal growth factor receptor (Homo sapiens, UniProt P00533); test: Inhibition of human EGFR autophosphorylation expressed in Sf9 cells DELFIA assay; format: cell-based
Chain of Epidermal growth factor receptor (P00533 whole entry): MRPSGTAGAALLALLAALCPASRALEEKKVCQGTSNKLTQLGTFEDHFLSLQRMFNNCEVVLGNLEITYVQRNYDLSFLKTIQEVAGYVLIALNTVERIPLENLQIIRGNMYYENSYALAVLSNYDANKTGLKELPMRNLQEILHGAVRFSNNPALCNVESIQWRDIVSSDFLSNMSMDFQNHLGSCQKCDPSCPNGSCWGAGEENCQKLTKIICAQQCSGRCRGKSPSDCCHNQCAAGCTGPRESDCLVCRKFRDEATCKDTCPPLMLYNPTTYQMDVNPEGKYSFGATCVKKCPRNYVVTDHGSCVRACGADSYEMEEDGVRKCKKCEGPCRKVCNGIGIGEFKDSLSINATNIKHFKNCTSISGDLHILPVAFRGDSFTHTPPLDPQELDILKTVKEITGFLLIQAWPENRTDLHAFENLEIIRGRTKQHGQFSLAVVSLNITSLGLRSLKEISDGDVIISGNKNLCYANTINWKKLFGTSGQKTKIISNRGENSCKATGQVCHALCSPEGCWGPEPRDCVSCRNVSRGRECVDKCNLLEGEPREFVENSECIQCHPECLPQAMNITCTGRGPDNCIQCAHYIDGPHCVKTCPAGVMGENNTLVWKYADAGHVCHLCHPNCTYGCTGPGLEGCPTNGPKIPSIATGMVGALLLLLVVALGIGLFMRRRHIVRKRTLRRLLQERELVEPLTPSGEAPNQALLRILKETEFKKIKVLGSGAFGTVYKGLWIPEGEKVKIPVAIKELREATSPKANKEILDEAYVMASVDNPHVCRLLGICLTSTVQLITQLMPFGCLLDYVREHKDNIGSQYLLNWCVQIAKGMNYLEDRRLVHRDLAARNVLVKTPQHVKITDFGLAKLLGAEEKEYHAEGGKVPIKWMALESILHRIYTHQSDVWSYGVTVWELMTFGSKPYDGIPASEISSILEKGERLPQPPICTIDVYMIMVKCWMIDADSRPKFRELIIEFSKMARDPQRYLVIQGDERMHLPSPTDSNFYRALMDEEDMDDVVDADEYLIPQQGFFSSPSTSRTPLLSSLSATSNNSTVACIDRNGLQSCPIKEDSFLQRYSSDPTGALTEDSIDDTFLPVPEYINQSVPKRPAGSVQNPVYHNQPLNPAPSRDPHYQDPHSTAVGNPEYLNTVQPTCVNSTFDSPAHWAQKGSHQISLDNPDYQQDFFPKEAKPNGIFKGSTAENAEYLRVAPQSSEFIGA

Row | Compound | IC50 (HepG2) [mg/L] | IC50 [1] [µM]
1 | O=C(c1c2c(c3ccccn13)C(=O)N(c1ccccc1)C2=O)C1CC1 | 0.48 (≈ 1.45 µM) | –
2 | COC(=O)c1cc(C(=O)C2CC2)n2c1ccc1ccccc12 | 4.6 (≈ 15.7 µM) | –
3 | Cc1ccc(Br)c2c(C#N)cc(C(=O)C3CC3)n12 | 0.2 (≈ 0.66 µM) | 0.085
4 | CCOC(=O)c1c(C(=O)OCC)c2ccccn2c1C(=O)C1CC1 | 32 (≈ 97.2 µM) | –
5 | CCOC(=O)c1c(C(=O)OCC)c2cc(C)ccn2c1C(=O)C1CC1 | 0.29 (≈ 0.845 µM) | –
6 | COC(=O)c1c(C(=O)OC)c2c3ccccc3ccn2c1C(=O)C1CC1 | 27 (≈ 76.8 µM) | –
7 | COC(=O)c1cc(C(=O)C2CC2)n2ccc(C)cc12 | 25 (≈ 97.2 µM) | –
8 | COC(=O)c1cc(C(=O)C2CC2)n2ccccc12 | 6.6 (≈ 27.1 µM) | –
9 | N#Cc1cc(C(=O)C2CC2)n2c1ccc1ccccc12 | 2.1 (≈ 8.07 µM) | –
10 | COC(=O)c1cc(C(=O)C2CC2)n2c(C)ccc(Br)c12 | 1.1 (≈ 3.27 µM) | –
11 | COC(=O)c1cc(C(=O)C2CC2)n2c(Br)cccc12 | 2.5 (≈ 7.76 µM) | –
12 | COC(=O)c1cc(C(=O)C2CC2)n2ccc3ccccc3c12 | 9.3 (≈ 31.7 µM) | –
13 | N#Cc1cc(C(=O)C2CC2)n2ccccc12 | 0.32 (≈ 1.52 µM) | –
14 | N#Cc1cc(C(=O)C2CC2)n2c(Br)cccc12 | 1.8 (≈ 6.23 µM) | –
15 | N#Cc1cc(C(=O)C2CC2)n2ccc3ccccc3c12 | 4.3 (≈ 16.5 µM) | –
16 | Cc1ccn2c(C(=O)C3CC3)cc(C#N)c2c1 | 21 (≈ 93.6 µM) | –
17 | N#Cc1cc(C(=O)C2CC2)n2c1ccc1nccn12 | 15 (≈ 59.9 µM) | –
18 | O=C(Nc1ccccc1)c1cc(C(=O)C2CC2)n2ccccc12 | 0.56 (≈ 1.84 µM) | –
19 | COC(=O)c1cc(C(=O)C2CC2)n2c1ccc1nccn12 | 25 (≈ 88.2 µM) | –
